How the values were obtained:
[1] = target: T1, CDK7/Cyclin H/MAT1 kinase (Homo sapiens (Human), UniProt P50613); experiment: Enzyme activity test, mobility shift assay (Table 1); format: biochemical; conditions: 2 mM ATP; pre-incubated 0 and 60 minutes
CDK2/Cyclin El = CDK2/Cyclin El (Homo sapiens (Human), UniProt P24941); experiment: as above; format: biochemical; conditions: 2 mM ATP; read-out: CDK2 kinase IC50
Experimental: (§1) The compound powder was dissolved in 100% DMSO to prepare a 10 mM storage solution. The storage solution was further diluted to 0.5 mM as the initial concentration, and continuously diluted 3 times to obtain 10 compound solutions with different concentrations. The compound and enzyme were pre-incubated for 0 minutes and 60 minutes, respectively, using duplicate detection.
(§2) was used as a positive control, and Mobility shift assay method was used to detect CDK kinase (such as CDK7, CDK9, CDK12 and CDK2) activity of the compounds.

CDK9/Cyclin Tl = CDK9/Cyclin Tl (Homo sapiens (Human), UniProt P50750); experiment: as above; format: biochemical; conditions: 2 mM ATP; read-out: CDK9 kinase IC50
Chain of CDK9/Cyclin Tl (P50750 whole entry): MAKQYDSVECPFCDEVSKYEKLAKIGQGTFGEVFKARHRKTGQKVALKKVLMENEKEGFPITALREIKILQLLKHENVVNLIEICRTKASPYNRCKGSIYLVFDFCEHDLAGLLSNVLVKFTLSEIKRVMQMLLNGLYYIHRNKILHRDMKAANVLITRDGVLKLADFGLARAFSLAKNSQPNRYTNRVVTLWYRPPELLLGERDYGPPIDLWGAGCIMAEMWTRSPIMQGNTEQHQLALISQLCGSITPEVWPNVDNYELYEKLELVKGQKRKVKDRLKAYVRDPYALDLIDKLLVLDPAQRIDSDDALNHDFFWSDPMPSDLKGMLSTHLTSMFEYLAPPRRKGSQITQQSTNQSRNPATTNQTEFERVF
Chain of CDK9/Cyclin Tl (O60563 whole entry partner): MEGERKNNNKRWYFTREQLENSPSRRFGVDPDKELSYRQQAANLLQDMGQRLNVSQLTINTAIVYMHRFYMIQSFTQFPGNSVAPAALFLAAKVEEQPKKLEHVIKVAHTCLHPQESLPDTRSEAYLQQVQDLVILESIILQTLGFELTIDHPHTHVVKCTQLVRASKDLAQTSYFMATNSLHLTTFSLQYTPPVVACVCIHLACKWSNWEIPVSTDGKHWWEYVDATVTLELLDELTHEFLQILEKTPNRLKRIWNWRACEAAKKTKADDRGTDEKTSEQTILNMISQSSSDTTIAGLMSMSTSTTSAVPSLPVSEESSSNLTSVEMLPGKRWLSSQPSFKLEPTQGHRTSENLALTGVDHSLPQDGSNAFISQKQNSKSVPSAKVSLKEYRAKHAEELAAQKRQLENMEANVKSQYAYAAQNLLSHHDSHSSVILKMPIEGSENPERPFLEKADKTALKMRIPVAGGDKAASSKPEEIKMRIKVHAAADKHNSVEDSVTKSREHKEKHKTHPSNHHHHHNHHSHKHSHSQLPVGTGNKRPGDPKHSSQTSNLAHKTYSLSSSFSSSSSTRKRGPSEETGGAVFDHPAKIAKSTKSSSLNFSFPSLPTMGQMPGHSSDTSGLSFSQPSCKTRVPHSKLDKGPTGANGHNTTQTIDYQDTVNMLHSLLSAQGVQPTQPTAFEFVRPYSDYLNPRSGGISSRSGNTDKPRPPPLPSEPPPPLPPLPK
Experimental: as §1, §2

[2] = target: CDK12 (aa686-1082)/Cyclin K (Homo sapiens (Human), UniProt Q9NYV4); experiment: as above; format: biochemical; conditions: 2 mM ATP; read-out: CDK12 kinase IC50
Chain of CDK12 (aa686-1082)/Cyclin K (Q9NYV4 686-1082): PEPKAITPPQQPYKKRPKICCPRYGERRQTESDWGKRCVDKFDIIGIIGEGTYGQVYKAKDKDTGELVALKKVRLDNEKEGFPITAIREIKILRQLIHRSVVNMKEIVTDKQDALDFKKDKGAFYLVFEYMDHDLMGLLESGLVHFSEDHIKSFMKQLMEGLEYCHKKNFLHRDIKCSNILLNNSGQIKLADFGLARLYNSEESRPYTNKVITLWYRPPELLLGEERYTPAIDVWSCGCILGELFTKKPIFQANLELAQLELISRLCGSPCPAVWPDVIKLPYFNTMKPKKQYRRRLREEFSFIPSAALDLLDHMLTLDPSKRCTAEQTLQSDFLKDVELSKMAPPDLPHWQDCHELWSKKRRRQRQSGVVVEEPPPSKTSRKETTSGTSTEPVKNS
Chain of CDK12 (aa686-1082)/Cyclin K (O75909 whole entry partner, the tested form may be a part): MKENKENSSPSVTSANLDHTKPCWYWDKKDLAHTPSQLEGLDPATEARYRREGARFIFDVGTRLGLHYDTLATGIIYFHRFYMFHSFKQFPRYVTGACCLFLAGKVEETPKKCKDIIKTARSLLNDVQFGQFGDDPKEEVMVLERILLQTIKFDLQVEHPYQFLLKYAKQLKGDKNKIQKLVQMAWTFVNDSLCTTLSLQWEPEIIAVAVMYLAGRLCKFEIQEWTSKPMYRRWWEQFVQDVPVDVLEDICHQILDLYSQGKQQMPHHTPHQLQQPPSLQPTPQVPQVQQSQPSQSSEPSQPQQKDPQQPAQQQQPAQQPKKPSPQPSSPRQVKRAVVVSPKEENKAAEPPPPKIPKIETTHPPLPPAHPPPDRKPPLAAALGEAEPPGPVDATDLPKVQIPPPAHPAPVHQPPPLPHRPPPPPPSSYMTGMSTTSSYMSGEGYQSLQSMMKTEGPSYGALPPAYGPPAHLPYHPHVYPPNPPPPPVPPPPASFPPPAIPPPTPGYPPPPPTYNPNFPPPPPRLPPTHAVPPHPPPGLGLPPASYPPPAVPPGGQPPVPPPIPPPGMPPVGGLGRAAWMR
Experimental: as §1, with “detection. Compound Staurosporine having a structural formula of” for “detection.”
as §2

[3] = tested on: ovarian cancer cells OVCAR3; experiment: Cell anti-proliferation experiment, MTT (Table 2); format: cell-based; conditions: Homo sapiens, OVCAR-3, 72 h, incubate 3 days
Description: (§3) Human breast cancer cells MDA-MB 231, MDA-MB453, ovarian cancer cells OVCAR3 and A2780, colorectal cancer cells HCT-116 and WiDr, and lung cancer cell Calu-6 were purchased from BNCC. DMEM medium (Bio-Channel), DMSO (dimethyl sulfoxide), MTT (thiazole blue), 0.25% EDTA-Tripsin (pancreatin digestive juice), 1×PBS (phosphate buffer, PH7.2), 96-well plate (Corning), fetal bovine serum (FBS), 10,000 U/mL penicillin-G/streptomycin, high-speed freezing centrifuge (EPPENDORF 5810R), enzyme-linked immunosorbent assay (Tecan Spark).
(§4) 1. Cell Plating • A) Tumor cells were cultured to 80-90% density in DMEM (high sugar, containing 10% FBS and 100 U/mL penicillin-G/streptomycin) at 37° C., 5% CO2 and saturated humidity. • B) The culture medium was removed from the 10 cm culture dish. • C) Cells were washed with 10 ml 1×PBS. • D) 4 ml of 0.25% EDTA-Tripsin was added to an incubator to digest pancreatin for 5 minutes at 37° C. and 5% CO2, transferred to a 15 ml centrifuge tube, centrifuged for 5 minutes at 200 g, and supernatant was discarded to obtain cell precipitation. • E) The cell precipitation was resuspended with 4 ml DMEM medium, counted and adjusted to 50,000 cells/ml. • F) Cell suspension was added to a 96-well plate with a volume of 100 μL per well and cultured overnight in a 5% CO2 incubator at 37° C.
(§5) Compound Dilution • A) Preparing the tested compound gradient dilution solution: the tested compounds were prepared into 10 mM and 1 mM storage solution respectively. Firstly, 1 μl and 0.5 μl of 10 mM storage solution were dissolved in 1 ml of DMSO-free culture solution, respectively, to obtain diluted compounds with concentrations of 10 and 5 μM. Then, 1.5 μl of 1 mM storage solution was dissolved in 1.5 ml of DMSO-free culture solution to obtain a dilution compound with a concentration of 1 μM, and then diluted with a 3-fold continuous gradient with […] culture solution for a total of 7 concentrations. The concentrations of all 10 diluted compounds mentioned above were as follows: • 10 μM, 5 μM, 1 μM, 333.33 nM, 111.11 nM, 37.03 nM, 12.35 nM, 4.15 nM, 1.37 nM, 0.46 nM • B) After full mixing, 100 μL of culture compound solution was taken to replace the culture solution in the cell culture plate, with 4 duplicated wells at each concentration; • C) The cells were transferred to incubator to incubate for 3 days.
(§6) 3. MTT Detection • A) The cell culture plate was taken out and added with 5 mg/ml MTT 10 μL in the biosafety cabinet; • B) The cell culture plate was put back into the incubator and continued to incubate for 3 hours; • C) The cell culture plate was taken out to remove the culture solution, 100 μL isopropanol (containing 0.4 mM HCl, 0.1% NP-40) was added, shaking at room temperature for 30 minutes; • D) The absorbance value was measured at 570 nm on TECAN enzyme linked immunosorbent assay.

[4] = tested on: ovarian cancer cells A2780; experiment: Cell anti-proliferation experiment, MTT (Table 2); format: cell-based, human; conditions: incubate 3 days
Description: as §3, §4, §5, §6

[5] = tested on: breast cancer cells MDA-MB 231; experiment: Cell anti-proliferation experiment, MTT (Table 2); format: cell-based; conditions: Homo sapiens, MDA-MB-231, 72 h, incubate 3 days
Description: as §3, §4, §5, §6

[6] = tested on: breast cancer cells MDA-MB453; experiment: Cell anti-proliferation experiment, MTT (Table 2); format: cell-based; conditions: Homo sapiens, MDA-MB-453, 72 h, incubate 3 days
Description: as §3, §4, §5, §6

lung cancer cell Calu-6 = experiment: Cell anti-proliferation experiment, MTT (Table 2); format: cell-based; conditions: Homo sapiens, Calu-6, 72 h, incubate 3 days
Description: as §3, §4, §5, §6

[7] = tested on: colorectal cancer cells HCT-116; experiment: Cell anti-proliferation experiment, MTT (Table 2); format: cell-based; conditions: Homo sapiens, HCT-116, 72 h, incubate 3 days
Description: as §3, §4, §5, §6

[8] = tested on: colorectal cancer cells WiDr; experiment: Cell anti-proliferation experiment, MTT (Table 2); format: cell-based, human; conditions: incubate 3 days
Description: as §3, §4, §5, §6

[9] = target: T1, CDK7/Cyclin H/MAT1 kinase; experiment: Enzyme activity test, mobility shift assay (Table 3); format: biochemical; conditions: 2 mM ATP, pre-incubated 0 and 60 minutes
Experimental: IC50 values of the compounds for CDK7 kinase were detected in Wuxi Biortus Biosciences Co. Ltd.
as §1
was used as a positive control, using Mobility shift say method, to detect CDK kinase (such as CDK7, CDK9, CDK12 and CDK2) activity of the compound.

T1 sequence (P50613 whole entry): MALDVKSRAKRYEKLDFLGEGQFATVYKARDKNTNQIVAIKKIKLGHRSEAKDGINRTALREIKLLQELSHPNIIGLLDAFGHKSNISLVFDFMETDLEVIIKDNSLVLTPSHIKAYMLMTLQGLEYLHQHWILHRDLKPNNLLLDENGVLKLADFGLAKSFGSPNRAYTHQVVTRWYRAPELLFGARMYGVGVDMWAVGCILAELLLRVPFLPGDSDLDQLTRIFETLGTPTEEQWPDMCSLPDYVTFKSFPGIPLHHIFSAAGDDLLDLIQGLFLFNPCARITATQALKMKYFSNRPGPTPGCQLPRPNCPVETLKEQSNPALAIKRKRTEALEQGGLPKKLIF
T1 sequence (P51946 whole entry partner): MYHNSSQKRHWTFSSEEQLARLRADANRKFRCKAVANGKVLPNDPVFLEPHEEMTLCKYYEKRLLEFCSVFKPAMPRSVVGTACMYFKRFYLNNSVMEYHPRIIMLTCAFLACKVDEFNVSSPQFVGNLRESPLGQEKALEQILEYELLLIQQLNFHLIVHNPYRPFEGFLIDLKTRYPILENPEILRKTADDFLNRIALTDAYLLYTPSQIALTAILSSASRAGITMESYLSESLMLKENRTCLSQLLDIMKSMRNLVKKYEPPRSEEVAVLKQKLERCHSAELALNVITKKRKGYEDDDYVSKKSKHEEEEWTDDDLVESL
T1 sequence (P51948 whole entry partner): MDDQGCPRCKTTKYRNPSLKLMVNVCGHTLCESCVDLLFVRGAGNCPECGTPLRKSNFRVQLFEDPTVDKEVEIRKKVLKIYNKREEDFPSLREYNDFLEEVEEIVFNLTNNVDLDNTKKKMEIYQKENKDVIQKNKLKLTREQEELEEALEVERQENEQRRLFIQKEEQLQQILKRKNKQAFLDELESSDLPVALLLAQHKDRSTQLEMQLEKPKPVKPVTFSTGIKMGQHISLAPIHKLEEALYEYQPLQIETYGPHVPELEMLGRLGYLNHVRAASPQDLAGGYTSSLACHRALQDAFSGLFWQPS

## COC(=O)Nc1ccc2c(-c3nc(N[C@H]4CCC5(CC5)NC4)ncc3C(F)(F)F)c[nH]c2c1C(C)=O [Example T-135]
[1]
  IC50: < 50 nM
CDK2/Cyclin El
  IC50: > 500 nM
CDK9/Cyclin Tl
  IC50: > 500 nM
[2]
  IC50: > 500 nM
[3]
  IC50: 161 nM
[4]; Homo sapiens, A2780, 72 h
  IC50: 4.61 nM

## COC(=O)Nc1ccc2c(-c3nc(N[C@H]4CCC(C)(C)NC4)ncc3C(F)(F)F)c[nH]c2c1Br [Example T-36]
[1]
  IC50: < 50 nM
CDK2/Cyclin El
  IC50: > 500 nM
CDK9/Cyclin Tl
  IC50: > 500 nM
[2]
  IC50: > 500 nM
[5]
  IC50: 471 nM
[6]
  IC50: 116 nM
Lung cancer cell Calu-6
  IC50: 209 nM
[3]
  IC50: 197 nM

## CC1(C)CC[C@H](Nc2ncc(C(F)(F)F)c(-c3c[nH]c4c(P(C)(C)=O)c(C#N)ccc34)n2)CN1 [Compound 101, reference compound]
[5]
  IC50: 1660 nM
[6]
  IC50: 112 nM
[7]
  IC50: 88.8 nM
Lung cancer cell Calu-6
  IC50: 207 nM
[3]
  IC50: 246 nM
[8]; Homo sapiens, WiDr, 72 h
  IC50: 11.2 nM
[4]; Homo sapiens, A2780, 72 h
  IC50: 8.76 nM

## CC1(C)CC[C@H](Nc2nc(-c3c[nH]c4c(P(C)(C)=O)c(C#N)ccc34)c3ccccc3n2)CN1 [Example 24]
[9]
  IC50: 10 to 500 nM

## COC(=O)N[C@H]1CCC[C@@H](Nc2ncc(C(F)(F)F)c(-c3c[nH]c4c(P(C)(C)=O)c(C#N)ccc34)n2)C1 [Example 66]
[9]
  IC50: < 10 nM

## COC(=O)Nc1ccc2c(-c3nc(N[C@H]4CCC5(CC5)NC4)ncc3C(F)(F)F)c[nH]c2c1OCC(F)(F)F [Example T-150]
[1]
  IC50: < 50 nM
CDK2/Cyclin El
  IC50: > 500 nM
CDK9/Cyclin Tl
  IC50: > 500 nM
[2]
  IC50: > 500 nM
[3]
  IC50: 161 nM
[4]; Homo sapiens, A2780, 72 h
  IC50: 13.5 nM

## COC(=O)Nc1ccc2c(-c3nc(N[C@H]4CCCNC4)ncc3C(F)(F)F)c[nH]c2c1C(F)(F)F [Example T-34]
[1]
  IC50: < 50 nM
CDK2/Cyclin El
  IC50: > 500 nM
CDK9/Cyclin Tl
  IC50: > 500 nM
[2]
  IC50: > 500 nM
[5]
  IC50: 573 nM
[6]
  IC50: 120 nM
[3]
  IC50: 215 nM
[4]; Homo sapiens, A2780, 72 h
  IC50: 8.73 nM

## C=C(C)c1c(NC(=O)OC)ccc2c(-c3nc(N[C@H]4CCCNC4)ncc3C(F)(F)F)c[nH]c12 [Example T-70]
[1]
  IC50: < 50 nM
CDK2/Cyclin El
  IC50: > 500 nM
CDK9/Cyclin Tl
  IC50: > 500 nM
[2]
  IC50: > 500 nM
[8]
  IC50: 45.5 nM
[4]
  IC50: 4.47 nM

## COC(=O)Nc1ccc2c(-c3nc(N[C@H]4CCCNC4)ncc3C(F)(F)F)c[nH]c2c1C1CC1 [Example T-17]
[1]
  IC50: < 50 nM
CDK2/Cyclin El
  IC50: > 500 nM
CDK9/Cyclin Tl
  IC50: > 500 nM
[2]
  IC50: > 500 nM
[8]; Homo sapiens, WiDr, 72 h
  IC50: 26.8 nM
[4]; Homo sapiens, A2780, 72 h
  IC50: 4.76 nM

## COC(=O)Nc1ccc2c(-c3nc(N[C@H]4CCC(C)(C)NC4)ncc3C(F)(F)F)c[nH]c2c1OC [Example T-132]
[1]
  IC50: < 50 nM
CDK2/Cyclin El
  IC50: > 500 nM
CDK9/Cyclin Tl
  IC50: > 500 nM
[2]
  IC50: > 500 nM
[3]
  IC50: 100 nM
[4]; Homo sapiens, A2780, 72 h
  IC50: 4.52 nM

## COC(=O)Nc1ccc2c(-c3nc(N[C@H]4CCC5(CC5)NC4)ncc3C(F)(F)F)c[nH]c2c1Br [Example T-142]
[1]
  IC50: < 50 nM
CDK2/Cyclin El
  IC50: > 500 nM
CDK9/Cyclin Tl
  IC50: > 500 nM
[2]
  IC50: > 500 nM
[3]
  IC50: 120 nM
[4]; Homo sapiens, A2780, 72 h
  IC50: 5.05 nM

## COC(=O)Nc1ccc2c(-c3nc(N[C@H]4CCC5(CC5)NC4)ncc3C(F)(F)F)c[nH]c2c1C(F)F [Example T-156]
[1]
  IC50: < 50 nM
CDK2/Cyclin El
  IC50: > 500 nM
CDK9/Cyclin Tl
  IC50: > 500 nM
[2]
  IC50: > 500 nM
[4]; Homo sapiens, A2780, 72 h
  IC50: 1.23 nM
